Experimental data from the supplement of paper PMC11451515.

Tested on: P12-Ichikawa
Assay: cell viability relative to DMSO control; higher = less cytotoxic
Settings: 48 h
How it was run: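 Library compounds in DMSO were pin-dosed in an 11-point threefold series (47 μM to 0.79 nM) onto leukemia cells in 1536-well plates (5 μl). Plates held 500 cells/well of NOMO1 or SEM or 1000 cells/well of P12-Ichikawa, each adapted for at least four passages in each medium. Luminescence was read with CellTiter-Glo One after 48 h at 37°C. Viability means the per-plate percentage relative to DMSO wells, using cell-free wells as background.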

[1] = HPLM + 10% dialyzed FBS, 0.000781 µM
[2] = HPLM + 10% dialyzed FBS, 0.00234 µM
[3] = HPLM + 10% dialyzed FBS, 0.00702 µM
[4] = HPLM + 10% dialyzed FBS, 0.0211 µM
[5] = HPLM + 10% dialyzed FBS, 0.0632 µM
[6] = HPLM + 10% dialyzed FBS, 0.19 µM
[7] = HPLM + 10% dialyzed FBS, 0.569 µM
[8] = HPLM + 10% dialyzed FBS, 1.71 µM
[9] = HPLM + 10% dialyzed FBS, 5.12 µM
[10] = HPLM + 10% dialyzed FBS, 15.4 µM
[11] = HPLM + 10% dialyzed FBS, 46.1 µM
[12] = RPMI 5 mM glucose + 10% FBS, 0.000781 µM
[13] = RPMI 5 mM glucose + 10% FBS, 0.00234 µM
[14] = RPMI 5 mM glucose + 10% FBS, 0.00702 µM
[15] = RPMI 5 mM glucose + 10% FBS, 0.0211 µM
[16] = RPMI 5 mM glucose + 10% FBS, 0.0632 µM
[17] = RPMI 5 mM glucose + 10% FBS, 0.19 µM
[18] = RPMI 5 mM glucose + 10% FBS, 0.569 µM
[19] = RPMI 5 mM glucose + 10% FBS, 1.71 µM
[20] = RPMI 5 mM glucose + 10% FBS, 5.12 µM
[21] = RPMI 5 mM glucose + 10% FBS, 15.4 µM
[22] = RPMI 5 mM glucose + 10% FBS, 46.1 µM
[23] = RPMI 5 mM glucose + 10% dialyzed FBS, 0.000781 µM
[24] = RPMI 5 mM glucose + 10% dialyzed FBS, 0.00234 µM
[25] = RPMI 5 mM glucose + 10% dialyzed FBS, 0.00702 µM
[26] = RPMI 5 mM glucose + 10% dialyzed FBS, 0.0211 µM
[27] = RPMI 5 mM glucose + 10% dialyzed FBS, 0.0632 µM
[28] = RPMI 5 mM glucose + 10% dialyzed FBS, 0.19 µM
[29] = RPMI 5 mM glucose + 10% dialyzed FBS, 0.569 µM
[30] = RPMI 5 mM glucose + 10% dialyzed FBS, 1.71 µM
[31] = RPMI 5 mM glucose + 10% dialyzed FBS, 5.12 µM
[32] = RPMI 5 mM glucose + 10% dialyzed FBS, 15.4 µM
[33] = RPMI 5 mM glucose + 10% dialyzed FBS, 46.1 µM

Row | SMILES | cell viability [1] [%] | cell viability [2] [%] | cell viability [3] [%] | cell viability [4] [%] | cell viability [5] [%] | cell viability [6] [%] | cell viability [7] [%] | cell viability [8] [%] | cell viability [9] [%] | cell viability [10] [%] | cell viability [11] [%] | cell viability [12] [%] | cell viability [13] [%] | cell viability [14] [%] | cell viability [15] [%] | cell viability [16] [%] | cell viability [17] [%] | cell viability [18] [%] | cell viability [19] [%] | cell viability [20] [%] | cell viability [21] [%] | cell viability [22] [%] | cell viability [23] [%] | cell viability [24] [%] | cell viability [25] [%] | cell viability [26] [%] | cell viability [27] [%] | cell viability [28] [%] | cell viability [29] [%] | cell viability [30] [%] | cell viability [31] [%] | cell viability [32] [%] | cell viability [33] [%]
1 | COc1cccc(N(C)C(=S)Oc2ccc3c(c2)CCCC3)n1 | 97.6 | 97.3 | 103 | 106 | 111 | 108 | 112 | 107 | 97.6 | 107 | 101 | 96.6 | 103 | 99.1 | 103 | 104 | 92.2 | 107 | 104 | 96.9 | 95.6 | 88.1 | 94.9 | 86.6 | 104 | 96.9 | 99.7 | 94.2 | 101 | 92.1 | 96.6 | 94.8 | 81.1
2 | CCCCN1CCC(CNC(=O)c2c3n(c4ccccc24)CCCO3)CC1 | 100 | 104 | 109 | 112 | 115 | 109 | 116 | 110 | 107 | 95 | 68.9 | 107 | 105 | 109 | 112 | 118 | 101 | 112 | 114 | 112 | 90.1 | 68 | 92.8 | 107 | 106 | 98.5 | 113 | 105 | 112 | 112 | 109 | 94.7 | 78.5
3 | O=C1c2ccccc2-c2n[nH]c3cccc1c23 | 96.5 | 102 | 107 | 111 | 107 | 108 | 81 | 106 | 80 | 46.6 | 12.8 | 106 | 109 | 107 | 113 | 109 | 111 | 84.6 | 106 | 68.4 | 48.9 | 10.7 | 98.1 | 97.2 | 98.5 | 108 | 112 | 100 | 87.6 | 101 | 78 | 62.3 | 16.4
4 | COc1cc(C[C@@H](CO)[C@H](CO)Cc2ccc(O)c(OC)c2)ccc1O | 94.8 | 102 | 100 | 105 | 106 | 116 | 112 | 111 | 104 | 99.6 | 115 | 99.4 | 95.1 | 108 | 109 | 109 | 111 | 118 | 119 | 114 | 117 | 110 | 109 | 112 | 113 | 118 | 118 | 122 | 119 | 133 | 134 | 136 | 125
5 | Cc1nnc(C(=O)NC(C)(C)c2nc(C(=O)NCc3ccc(F)cc3)c(O)c(=O)n2C)o1 | 114 | 110 | 104 | 108 | 109 | 103 | 109 | 90.9 | 102 | 102 | 107 | 107 | 110 | 99.3 | 106 | 102 | 104 | 107 | 95.1 | 103 | 103 | 90.7 | 97.8 | 100 | 104 | 103 | 98.7 | 95.5 | 107 | 94.4 | 95.2 | 91.5 | 92.9
6 | C/C1=C/C(=C(/CNC(=O)C2=CC(=CC3=C2C=N[N]3C4CCCC4)C5=CC=C(CN6CCOCC6)C=C5)C(=O)N1)C | 113 | 118 | 118 | 117 | 124 | 120 | 114 | 112 | 114 | 106 | 38.6 | 128 | 124 | 120 | 117 | 126 | 123 | 126 | 123 | 115 | 122 | 45.8 |  |  |  |  |  |  |  |  |  |  | 
7 | C#CCC(Cc1cnc2nc(N)nc(N)c2n1)c1ccc(C(=O)N[C@@H](CCC(=O)O)C(=O)O)cc1 (stereo partly drawn) |  |  |  |  |  |  |  |  |  |  |  | 125 | 119 | 128 | 128 | 44.8 | 47.4 | 29.9 | 27.4 | 23.9 | 29 | 30.8 | 120 | 110 | 115 | 125 | 37.1 | 25.6 | 20.2 | 19.9 | 17.2 | 20.3 | 19
8 | COc1ccc(/C=C/C(=O)Nc2ccccc2C(=O)O)cc1OC | 110 | 111 | 108 | 112 | 121 | 108 | 93.1 | 100 | 108 | 99.3 | 102 | 112 | 108 | 113 | 115 | 113 | 101 | 107 | 106 | 107 | 105 | 102 | 103 | 101 | 113 | 114 | 111 | 110 | 98.5 | 80.4 | 103 | 98.5 | 94.8
9 | c1coc(CNc2ncnc3nc[nH]c23)c1 |  |  |  |  |  |  |  |  |  |  |  |  |  |  |  |  |  |  |  |  |  |  | 123 | 132 | 116 | 122 | 131 | 131 | 130 | 127 | 122 | 115 | 105
